Laboratory results: US11021481B2, “Substituted isoindolin-1-ones and 2,3-dihydro-1h-pyrrolo[3,4-c]pyridin-1-ones as HPK1 antagonists” (Nimbus Saturn, Inc., priority 2019, dated 2021)

What follows are molecules tested against HPK1 (Homo sapiens (Human), UniProt Q92918) (assay: HPK1 biochemical enzyme assay (microfluidic mobility shift assay)). Details: 1.5 nM HPK1, ATP 1 mM final, 30 min preincubation, 60 min at RT, Caliper EZ Reader; read-out: HPK1 1000UMATP caliper IC50.
Outline: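 Ten-point compound titrations (top 3 μM final) preincubated 30 min with HPK1 and substrate, then reaction started with 1 mM ATP and 1 μM substrate, 5 mM MgCl2. After 60 min at RT, reaction terminated and product measured by microfluidic mobility shift.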

Sequence of HPK1 (Q92918 whole entry): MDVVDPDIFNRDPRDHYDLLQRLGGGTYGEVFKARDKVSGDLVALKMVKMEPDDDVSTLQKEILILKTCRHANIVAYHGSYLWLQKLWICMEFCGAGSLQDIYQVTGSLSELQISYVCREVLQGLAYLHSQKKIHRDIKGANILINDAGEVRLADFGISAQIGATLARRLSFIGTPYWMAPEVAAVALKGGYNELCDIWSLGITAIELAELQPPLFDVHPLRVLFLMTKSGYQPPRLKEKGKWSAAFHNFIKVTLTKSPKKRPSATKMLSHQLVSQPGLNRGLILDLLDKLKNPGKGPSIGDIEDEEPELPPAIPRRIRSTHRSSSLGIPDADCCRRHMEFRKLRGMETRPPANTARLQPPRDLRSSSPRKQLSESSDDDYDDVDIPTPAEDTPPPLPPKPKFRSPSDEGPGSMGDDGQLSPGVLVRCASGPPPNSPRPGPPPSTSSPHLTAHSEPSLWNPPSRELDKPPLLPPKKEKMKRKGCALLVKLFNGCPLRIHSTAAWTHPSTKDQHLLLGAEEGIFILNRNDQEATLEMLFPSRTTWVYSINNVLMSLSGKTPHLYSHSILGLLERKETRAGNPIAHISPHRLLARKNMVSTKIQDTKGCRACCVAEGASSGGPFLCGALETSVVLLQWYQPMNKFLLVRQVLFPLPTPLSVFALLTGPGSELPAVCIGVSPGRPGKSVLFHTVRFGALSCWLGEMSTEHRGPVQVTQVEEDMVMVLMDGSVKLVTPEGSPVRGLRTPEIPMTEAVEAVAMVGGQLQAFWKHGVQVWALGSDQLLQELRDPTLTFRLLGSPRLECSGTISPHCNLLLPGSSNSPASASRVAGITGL

Molecule | IC50
Cn1ccc2c(-c3ncc(Nc4ccc(N5C[C@@H]6C[C@H]5CO6)cn4)c4c3CNC4=O)ccnc21 [I-309, 7-((5-((1S,4S)-2-oxa-5-azabicyclo[2.2.1]heptan-5-yl)pyridin-2-yl)amino)-4-(1-methyl-1H-pyrrolo[2,3-b]pyridin-4-yl)-2,3-dihydro-1H-pyrrolo[3,4-c]pyridin-1-one] | < 100 nM
Cn1ccc2c(-c3ncc(Nc4ccc(N5CCC[C@@H](O)C5)cn4)c4c3CNC4=O)ccnc21 [I-178, 7-[[5-[(3R)-3-hydroxy-1-piperidyl]-2-pyridyl]amino]-4-(1-methylpyrrolo [2,3-b]pyridin-4-yl)-2,3-dihydropyrrolo [3,4-c]pyridin-1-one] | < 100 nM
CN1CCC(O)(c2ccc(Nc3ccc(-c4ccnc5c4ccn5C)c4c3C(=O)NC4)nc2)CC1 [I-274, 7-((5-(4-hydroxy-1-methylpiperidin-4-yl)pyridin-2-yl)amino)-4-(1-methyl-1H-pyrrolo[2,3-b]pyridin-4-yl)isoindolin-1-one] | < 100 nM
Cn1ccc2c(-c3ncc(Nc4ccc([C@@H]5CCOC5)cn4)c4c3CNC4=O)ccnc21 [I-219, (S)-4-(1-methyl-1H-pyrrolo[2,3-b]pyridin-4-yl)-7-((5-(tetrahydro-furan-3-yl)pyridin-2-yl)amino)-2,3-dihydro-1H-pyrrolo[3,4-c]pyridin-1-one] | < 100 nM
Cn1ccc2c(-c3ncc(Nc4ccc([C@H]5CCOC5)cn4)c4c3CNC4=O)ccnc21 [I-217, (R)-4-(1-methyl-1H-pyrrolo[2,3-b]pyridin-4-yl)-7-((5-(tetrahydro-furan-3-yl)pyridin-2-yl)amino)-2,3-dihydro-1H-pyrrolo[3,4-c]pyridin-1-one] | < 100 nM
(S)-7-((5-(4-hydroxypiperidin-1-yl)pyridin-2-yl)amino)-3-methyl-4-(1-methyl-1H-pyrrolo[2,3-b]pyridin-4-yl)isoindolin-1-one [I-286] | > 1000 nM
Cn1ccc2c(-c3ncc(Nc4ccc(N5CCO[C@H](C(C)(C)O)C5)cn4)c4c3CNC4=O)ccnc21 [I-471, 7-[[5-[(2S)-2-(1-hydroxy-1-methyl-ethyl)morpholin-4-yl]-2-pyridyl]amino]-4-(1-methylpyrrolo [2,3-b]pyridin-4-yl)-2,3-dihydropyrrolo [3,4-c]pyridin-1-one] | < 100 nM
CN1CCc2ccc(Nc3cnc(-c4ccnc5c4ccn5C)c4c3C(=O)NC4)nc2C1 [I-418, 4-(1-methyl-1H-pyrrolo[2,3-b]pyridin-4-yl)-7-((7-methyl-5,6,7,8-tetrahydro-1,7-naphthyridin-2-yl)amino)-2,3-dihydro-1H-pyrrolo[3,4-c]pyridin-1-one] | > 1000 nM
Cn1ccc2c(-c3c(F)cc(Nc4ccc(N5CCC(O)CC5)cn4)c4c3CNC4=O)ccnc21 [I-197, 5-fluoro-7-[[5-(4-hydroxy-1-piperidyl)-2-pyridyl]amino]-4-(1-methylpyrrolo[2,3-b]pyridin-4-yl)isoindolin-1-one] | < 100 nM
O=C1NCc2c(-c3cnc4c(F)cccn34)ncc(Nc3ccc(N4CC[C@H](F)[C@H](O)C4)cn3)c21 [I-658, 7-((5-((3R,4S]-4-fluoro-3-hydroxy-piperidin-1-yl)pyridin-2-yl)amino)-4-(8-fluoroimidazo [1,2-a]pyridin-3-yl)-2,3-dihydro-1H-pyrrolo[3,4-c]pyridin-1-one] | < 100 nM
(S)-7-((6- ((dimethylamino)- methyl)-5- (tetrahydrofuran- 3-yl)pyridin- 2-yl)amino)-4- (8-methylimidazo [1,2-a]pyridin- 3-yl)isoindolin- 1-one [I-695] | < 100 nM
Cc1cccc2c(-c3ncc(Nc4ccc(N5CCN(C)CC5)cn4)c4c3CNC4=O)c[nH]c12 [I-5, 4-(7-methyl-1H-indol-3-yl)-7-[[5-(4-methylpiperazin-1-yl)-2-pyridyl]amino]-2,3-dihydropyrrolo [3,4-c]pyridin-1-one] | 100 to 1000 nM
CN1CCN(c2ccc(Nc3cnc(-c4c(F)cnc5c4ccn5C)c4c3C(=O)NC4)nc2)CC1 [I-128] | < 100 nM

Results, then the molecule that gave them:

IC50 | Molecule
< 100 nM | CN(C)Cc1nc(Nc2ccc(-c3cnc4cc(F)ccn34)c3c2C(=O)NC3)ccc1C1(C)CCOC1 (centres unmarked) [I-843, 7-((6-((dimethylamino)-methyl)-5-(3-methylTHF-3-yl)pyridin-2-yl)amino)-4-(7-fluoroimidazo [1,2-a]pyridin-3-yl)isoindolin-1-one]
< 100 nM | Cn1ccc2c(-c3ccc(Nc4ccc(N5CCNCC5)cn4)c4c3CNC4=O)ccnc21 [I-43]
< 100 nM | O=C1NCc2c(-c3cnc4cc(F)ccn34)ccc(Nc3ccc(N4CCOCC45CC5)cn3)c21 [I-335, 7-((5-(7-oxa-4-azaspiro[2.5]octan-4-yl)pyridin-2-yl)amino)-4-(7-fluoroimidazo [1,2-a]pyridin-3-yl)isoindolin-1-one]
100 to 1000 nM | O=C1NCc2c(-c3cnc4cc(F)ccn34)ccc(Nc3cccc(O[C@@H]4CCC[C@@H]4O)n3)c21 (stereo in doubt) [I-353, 4-(7-fluoroimidazo [1,2-a]pyridin-3-yl)-7-((6-(((1S,2R)-2-hydroxycyclo-pentyl)oxy)py-ridin-2-yl)amino) isoin-dolin-1-one]
< 100 nM | CN(C)Cc1nc(Nc2ccc(-c3cnc4cc(F)ccn34)c3c2C(=O)NC3)ccc1N1CCC(O)CC1 [I-777, 7-((6-((dimethylamino)-methyl)-5-(4-hydroxypiperidin-1-yl)pyridin-2-yl)amino)-4-(7-fluoroimidazo [1,2-a]pyridin-3-yl)isoindolin-1-one]
> 1000 nM | O=C1NCc2c(-c3cnc4cnccn34)ccc(Nc3cc(N4CCC(O)CC4)ccn3)c21 [I-324, 7-((4-(4-hydroxy-piperidin-1-yl)pyridin-2-yl)amino)-4-(imidazo[1,2-a]pyrazin-3-yl)isoindolin-1-one]
< 100 nM | CN1CCN(c2ccc(Nc3cnc(-c4cnc5c(F)cccn45)c4c3C(=O)NC4)nc2)CC1C(C)(C)O (stereo in doubt) [I-622, (S)-4-(8-fluoroimidazo [1,2-a]pyridin-3-yl)-7-((5-(3-(2-hydroxypropan-2-yl)-4-methylpiperazin-1-yl)pyridin-2-yl)amino)-2.3-dihydro-1H-pyrrolo[3,4-c]pyridin-1-one]
< 100 nM | O=C1NCc2c(-c3cnc4cc(F)ccn34)ccc(Nc3ccc(N4CCC[C@H](O)C4)cn3)c21 [I-175, 4-(7-fluoroimidazo [1,2-a]pyridin-3-yl)-7-[[5-[(3S)-3-hydroxy-1-piperidyl]-2-pyridyl]amino] isoindolin-1-one]
< 100 nM | CN(CCO)Cc1nc(Nc2ccc(-c3cnc4cc(F)ccn34)c3c2C(=O)NC3)ccc1C1CCOC1 (stereo in doubt) [I-733, (S)-4-(7-fluoroimidazo [1,2-a]pyridin-3-yl)-7-(6-(((2-hydroxy-ethyl)(methyl)-amino)methyl)-5-(tetrahydrofuran-3-yl)pyridin-2-yl)amino)isoin-dolin-1-one]
100 to 1000 nM | Cc1cc(-c2ccc(Nc3ccc(N4CCNCC4)cn3)c3c2CNC3=O)c2ccn(C)c2n1 [I-103, 4-(1,6-dimethylpyrrolo [2,3-b]pyridin-4-yl)-7-[(5-piperazin-1-yl-2-pyridyl)amino] isoindolin-1-one]
< 100 nM | CN(C)Cc1nc(Nc2ccc(-c3cnc4cc(F)ccn34)c3c2C(=O)NC3)ccc1S(C)(=O)=O [I-796, 7-((6-((dimethylamino)-methyl)-5-(methylsulfon-yl)pyridin-2-yl)amino)-4-(7-fluoroimidazo [1,2-a]pyridin-3-yl)isoindolin-1-one]
< 100 nM | COc1ccc2c(-c3ccc(Nc4ccc(N5CCN(C)CC5)cn4)c4c3CNC4=O)c[nH]c2c1 [I-28, 4-(6-methoxy-1H-indol-3-yl)-7-[[5-(4-methylpiperazin-1-yl)-2-pyridyl]amino] isoindolin-1-one]
< 100 nM | Cn1ccc2c(-c3ccc(Nc4ccc(N5CCC[C@H](C(C)(C)O)C5)cn4)c4c3CNC4=O)ccnc21 (single isomer, unassigned) [I-280]
< 100 nM | Cc1ccn2c(-c3ccc(Nc4ccc([C@@H]5CCOC5)cn4)c4c3CNC4=O)cnc2c1 [I-192, (S)-4-(7-methylimidazo [1,2-a]pyridin-3-yl)-7-((5-(tetrahydro-furan-3-yl)pyridin-2-yl)amino)isoin-dolin-1-one]
< 100 nM | O=C1NCc2c(-c3cnc4cc(F)ccn34)ccc(Nc3ccc(N4CCC[C@@](O)(CN5CCOCC5)C4)cn3)c21 [I-656, (R)-4-(7-fluoroimidazo [1,2-a]pyridin-3-yl)-7-((5-(3-hydroxy-3-(morpholinomethyl)piperidin-1-yl)pyridin-2-yl)amino)isoin-dolin-1-one]
< 100 nM | COC[C@@]1(O)CCCN(c2ccc(Nc3ccc(-c4cnc5cc(F)ccn45)c4c3C(=O)NC4)nc2)C1 [I-394, (R)-4-(7-fluoroimidazo [1,2-a]pyridin-3-yl)-7-((5-(3-hydroxy-3-(methoxymeth-yl)piperidin-1-yl)pyridin-2-yl)amino)isoin-dolin-1-one]
< 100 nM | Cc1ccn2c(-c3ncc(Nc4ccc(N5CCO[C@H](C(C)(C)O)C5)cn4)c4c3CNC4=O)cnc2c1F [I-473, 4-(8-fluoro-7-methyl-imidazo[1,2-a]pyridin-3-yl)-7-[[5-[(2S)-2-(1-hydroxy-1-methyl-ethyl)morpholin-4-yl]-2-pyridyl]amino]-2,3-dihydropyrrolo [3,4-c]pyridin-1-one]
< 100 nM | C[C@@H](O)[C@H]1CCCN(c2ccc(Nc3ccc(-c4cnc5cc(F)ccn45)c4c3C(=O)NC4)nc2)C1 (stereo in doubt) [I-364, 4-(7-fluoroimidazo [1,2-a]pyridin-3-yl)-7-((5-((R)-3-((S)-1-hydroxyethyl)piperidin-1-yl)pyridin-2-yl)amino)isoin-dolin-1-one]
< 100 nM | CN(C)C(C)(C)[C@H]1CN(c2ccc(Nc3ccc(-c4cnc5cnccn45)c4c3C(=O)NC4)nc2)CCO1 [I-618, (R)-7-((5-(2-(2-(dimethylami-no)propan-2-yl)morpho-lino)pyridin-2-yl)amino)-4-(imidazo[1,2-a]pyrazin-3-yl)isoindolin-1-one]
